# According to the supplement of paper PMC10307832:
# Assays:
# Assay in all cases: relative viability (nuclei count vs DMSO), 5 days (fraction); higher = more cells survive
# PAC-1 + Bortezomib = compound: C=CCc1cccc(/C=N/NC(=O)CN2CCN(Cc3ccccc3)CC2)c1O [PAC-1] + CC(C)C[C@H](NC(=O)[C@H](Cc1ccccc1)NC(=O)c1cnccn1)B(O)O [Bortezomib] (partner 0.002 µM)
# How it was run: (§1)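 Relative viability was taken as the ratio of nuclei in treated wells to nuclei in vehicle wells. Lung cancer cell lines in 1536-well plates received compounds by pin tool one day after seeding, either one drug alone or a fixed anchor-drug dose plus five library-drug doses (not always all listed) in √10 steps. Nuclei were counted on 4× images after 5 days of treatment, and values are medians of duplicate plates.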
# PAC-1 + Luminespib = compound: C=CCc1cccc(/C=N/NC(=O)CN2CCN(Cc3ccccc3)CC2)c1O [PAC-1] + CCNC(=O)c1noc(-c2cc(C(C)C)c(O)cc2O)c1-c1ccc(CN2CCOCC2)cc1 [Luminespib] (partner 0.01 µM)
# How it was run: as §1
# BMX-IN-1 + Foretinib = compound: C=CC(=O)Nc1cc(-n2c(=O)ccc3cnc4ccc(-c5ccc(NS(C)(=O)=O)cc5)cc4c32)ccc1C [BMX-IN-1] + COc1cc2c(Oc3ccc(NC(=O)C4(C(=O)Nc5ccc(F)cc5)CC4)cc3F)ccnc2cc1OCCCN1CCOCC1 [Foretinib] (partner 0.25 µM)
# How it was run: as §1
# Ibrutinib + Trametinib = compound: C=CC(=O)N1CCC[C@@H](n2nc(-c3ccc(Oc4ccccc4)cc3)c3c(N)ncnc32)C1 [Ibrutinib] + CC(=O)Nc1cccc(-n2c(=O)n(C3CC3)c(=O)c3c(Nc4ccc(I)cc4F)n(C)c(=O)c(C)c32)c1 [Trametinib] (partner 0.02 µM)
# How it was run: as §1
Cell Line,relative viability (PAC-1 + Bortezomib; first compound 0.02 µM),relative viability (PAC-1 + Bortezomib; first compound 0.06325 µM),relative viability (PAC-1 + Bortezomib; first compound 0.2 µM),relative viability (PAC-1 + Bortezomib; first compound 2 µM),relative viability (PAC-1 + Luminespib; first compound 0.02 µM),relative viability (PAC-1 + Luminespib; first compound 0.06325 µM),relative viability (PAC-1 + Luminespib; first compound 0.2 µM),relative viability (PAC-1 + Luminespib; first compound 2 µM),relative viability (BMX-IN-1 + Foretinib; first compound 0.02 µM),relative viability (BMX-IN-1 + Foretinib; first compound 0.2 µM),relative viability (BMX-IN-1 + Foretinib; first compound 0.6325 µM),relative viability (BMX-IN-1 + Foretinib; first compound 2 µM),relative viability (Ibrutinib + Trametinib; first compound 0.005 µM),relative viability (Ibrutinib + Trametinib; first compound 0.01581 µM),relative viability (Ibrutinib + Trametinib; first compound 0.05 µM),relative viability (Ibrutinib + Trametinib; first compound 0.1581 µM),relative viability (Ibrutinib + Trametinib; first compound 0.5 µM)
NCI-H441,0.57,0.358,0.265,0.778,0.285,0.254,0.471,0.335,1.26,1.05,1.14,0.876,0.423,0.441,0.524,0.344,0.342
NCI-H460,1.3,1.02,0.859,1.14,0.035,0.0314,0.0281,0.0281,1.22,1.09,1.11,1.06,0.133,0.0919,0.195,0.13,0.152
NCI-H520,0.716,0.624,0.607,0.421,0.269,0.248,0.252,0.216,0.825,0.879,0.864,0.825,0.486,0.651,0.653,0.794,0.621
NCI-H596,0.895,1.09,1.56,1.04,0.913,0.975,0.929,1.08,0.953,1.25,0.872,0.714,0.821,0.688,0.808,0.826,0.874
NCI-H647,0.771,0.924,0.765,0.924,0.103,0.123,0.286,0.16,1.32,1.58,1.14,1.21,0.415,0.445,0.478,0.443,0.529
NCI-H650,0.755,0.871,0.736,0.735,0.701,0.929,0.882,0.748,1.06,1.01,1.12,1.1,0.921,0.967,1.01,1.06,0.976
NCI-H661,0.782,0.816,0.782,0.91,0.951,0.882,0.821,0.736,1.16,0.961,1.11,1.02,0.509,0.478,0.436,0.532,0.433
NCI-H727,0.905,0.925,0.944,0.818,0.255,0.371,0.639,0.315,1.37,0.933,0.893,1.01,0.463,0.4,0.398,0.37,0.388
NCI-H838,0.732,0.717,0.644,0.711,0.254,0.374,0.238,0.301,1.3,1.25,1.24,0.982,0.342,0.484,0.528,0.523,0.499
NCI-H1355,1.15,1.28,1.14,1.2,0.762,0.668,0.797,0.778,1.1,1.15,0.921,0.977,–,0.395,0.363,0.433,0.368
NCI-H1437,0.513,0.525,0.414,0.383,1.15,1.13,1.06,0.907,1.34,1.27,1.31,1.32,0.53,0.51,0.555,0.491,0.624
NCI-H1650,0.198,0.18,0.183,0.229,0.191,0.199,0.209,0.191,1.05,1.46,1.2,1.17,0.881,0.535,0.46,0.527,0.477
NCI-H1651,0.905,0.929,0.88,0.968,0.789,0.859,0.744,0.905,1,0.907,0.909,0.773,0.858,0.807,0.765,0.776,0.773
NCI-H1666,0.849,0.809,0.828,0.912,0.981,1.08,1.08,0.864,0.959,1.04,1.03,0.935,0.809,0.849,0.832,0.938,0.744
NCI-H1734,0.904,0.995,0.877,0.955,0.169,0.178,0.18,0.189,1.01,0.954,1.08,0.796,0.636,0.67,0.677,0.596,0.618
NCI-H1755,0.99,0.961,0.938,0.907,0.482,0.306,0.502,0.563,0.833,0.891,1.05,0.905,0.761,0.796,0.796,0.793,0.746
NCI-H1915,0.995,0.964,0.907,1.02,0.792,0.845,0.68,0.779,1.16,1.25,1.12,1.07,0.324,0.295,0.28,0.292,0.283

Cell Line,relative viability (PAC-1 + Bortezomib; first compound 0.02 µM),relative viability (PAC-1 + Bortezomib; first compound 0.06325 µM),relative viability (PAC-1 + Bortezomib; first compound 0.2 µM),relative viability (PAC-1 + Bortezomib; first compound 2 µM),relative viability (PAC-1 + Luminespib; first compound 0.02 µM),relative viability (PAC-1 + Luminespib; first compound 0.06325 µM),relative viability (PAC-1 + Luminespib; first compound 0.2 µM),relative viability (PAC-1 + Luminespib; first compound 2 µM),relative viability (BMX-IN-1 + Foretinib; first compound 0.02 µM),relative viability (BMX-IN-1 + Foretinib; first compound 0.2 µM),relative viability (BMX-IN-1 + Foretinib; first compound 0.6325 µM),relative viability (BMX-IN-1 + Foretinib; first compound 2 µM),relative viability (Ibrutinib + Trametinib; first compound 0.005 µM),relative viability (Ibrutinib + Trametinib; first compound 0.01581 µM),relative viability (Ibrutinib + Trametinib; first compound 0.05 µM),relative viability (Ibrutinib + Trametinib; first compound 0.1581 µM),relative viability (Ibrutinib + Trametinib; first compound 0.5 µM)
NCI-H1975,0.35,0.396,0.378,0.386,0.242,0.188,0.253,0.167,0.938,1.08,1.01,0.93,0.274,0.303,0.287,0.302,0.213
NCI-H1993,0.975,1.08,1.15,1.09,0.951,0.861,0.399,0.789,0.882,0.816,0.731,0.755,0.487,0.571,0.518,0.617,0.398
NCI-H2009,1.01,0.994,0.897,0.956,1.01,1.04,1.03,1.01,1.38,1.26,1.24,1.28,0.208,0.252,0.253,0.306,0.234
NCI-H2023,1.2,1.04,0.87,1.02,0.741,0.703,0.667,0.444,0.928,1.12,1.06,0.926,0.448,0.455,0.491,0.485,0.462
NCI-H2085,1.09,1.1,1.14,1.12,0.42,0.496,0.43,0.484,0.978,0.847,0.763,0.804,0.499,0.548,0.566,0.661,0.463
NCI-H2087,0.739,0.838,0.702,0.95,0.174,0.243,0.21,0.182,1.25,1.12,1.37,1.26,0.166,0.196,0.199,–,0.2
NCI-H2126,1.08,1.08,1.21,1.18,0.989,0.889,0.93,0.948,1.15,1.21,1.32,1.25,0.5,0.474,0.522,0.559,0.466
NCI-H2228,0.897,1.26,1.03,1.51,0.16,0.146,0.162,0.182,1.19,1.08,1.03,0.916,0.379,0.488,0.412,0.55,0.298
NCI-H2347,1.07,0.912,1.08,0.875,0.302,0.427,0.536,0.583,0.826,1.03,1.36,0.854,0.283,0.228,0.37,0.245,0.239
NCI-H2405,0.981,1.02,0.959,0.977,0.611,0.652,0.656,0.789,1.04,1.1,1.11,1.03,0.546,0.558,–,–,0.448
NCI-H3122,1.03,1.05,1,0.977,0.119,0.0845,0.0804,0.0955,1,0.951,0.957,0.984,0.23,0.244,0.251,0.223,0.221
PC-3 [JPC-3],0.83,0.789,0.774,0.877,0.774,0.644,0.53,0.664,1.12,1.16,1.09,1,0.617,0.592,0.617,0.754,0.456
PC-14,0.937,0.953,0.754,0.927,0.127,0.172,0.151,0.252,1.04,1.05,1.16,0.922,0.735,0.647,0.643,0.818,0.254
RERF-LC-KJ,1.15,1.16,1.08,1.17,1.22,1.2,1.16,1.06,0.971,1.02,1.08,0.868,0.956,0.815,1.09,0.822,0.742
SK-LU-1,0.8,1.3,1.21,1.22,0.216,0.375,0.223,0.191,0.92,1.04,0.785,0.76,0.393,0.501,0.472,0.536,0.454
SW 1573,0.947,1.08,1.01,1.13,0.214,0.175,0.223,0.371,0.953,0.947,1.02,0.337,–,0.462,0.618,0.547,0.661
UMC-11,0.693,0.55,0.605,0.782,1.05,0.986,1.04,0.928,1.15,1.13,0.981,1.11,0.445,0.698,0.772,0.667,0.516
